The text below walks through data of US20210371483A1, “Composition for Inactivating Spores by Means of Antimicrobial Peptides” (Robert Bosch Gesellschaft Fur Medizinische Fruschung mbH, priority 2016, published 2021).

Assay type in all cases: cell-based, Clostridium difficile
Assay [1] deals with C. difficile spores. The experiment in a line: Spore germination after incubation, wash-out and heat killing of residual vegetative cells (FIG. 1). Particulars: for decrease in germinating spores: incubation, wash-out, heat 61° C., 30 min, as a function of peptide concentration. The protocol:
(§1) The effects of antimicrobial peptides on C. difficile spores were investigated by first enriching a bacterial suspension with spores so that at least 70% spores were present. The spore suspension was incubated for 60 minutes with various defensins (HBD1, HBD2, HBD3) and the cathelicidin LL37 (recombinant defensins: Peptanova Sandhausen, HBD1 order No. 4337; HBD2; 4338, HBD3 4382/recombinant LL37: Innovagen Lund Sweden, order No. SP-LL-37-1). Thereafter, aliquots of the samples were plated out on Columbia blood agar and incubated anaerobically for at least 4 days. The germinated spores in an untreated control and the preparations containing antimicrobial peptides were counted.
In further experiments, the inventers wanted to make the unambiguous assignment that resultant bacterial colonies can be attributed with certainty to the germinated spores and not to the steady growth of residual vegetative cells. To this end, incubation and wash-out were followed by killing the residual vegetative cells using heat (61° C., 30 min). This heat treatment kills only the vegetative cells, but not the spores.

The subject of assay [2] is C. difficile spores. In words: Incubation of C. difficile spore suspension with antimicrobial peptides, plating and counting of germinated spores. Particulars: spore suspension (at least 70% spores) incubated 60 minutes with peptide; plated on Columbia blood agar, anaerobic at least 4 days. As to the method:
as §1

Assay [3] concerns C. difficile spores. In words: Electron microscopy of C. difficile spores incubated with gold-labeled HBD3 peptides (FIGS. 2 and 3).
Assay [4] deals with C. difficile spores. The experiment in a line: Spore germination experiment repeated with wash-out of the peptides after incubation. Particulars: peptides washed out at end of incubation, medium free of peptides. As to the method: as §1
In order to able to establish with certainty whether either germinating bacteria are rapidly killed by the presence of antimicrobial peptides in the medium or the spores are in fact prevented from germinating, the experiment was repeated, but at the end of the incubation time, the peptides were washed out and the medium was free of peptides.

Entries after “also recorded” stand apart in the source; their conditions may differ. Where no end group is shown, it is not given here.

With “human beta-defensin-3 (GIINTLQKYYCRVRGGRCAVLSCLPKEEQIGKCSTRGRKCCRRKK; ends and bridges not checked; cysteine pairing not given here; UniProt P81534 23-67, looked up) [HBD3, Human beta-defensin 3, protein composed of 45 amino acids, net charge +11; recombinant, Peptanova order No. 4382]”, in assay [1] (2.5 μg/mL peptide, after wash-out and heat treatment), the “number of germinating spores” value was “greatly lowering the number of germinating spores”. Also, in assay [1] (in lower concentrations, after wash-out and heat treatment), the “efficacy compared with the other effective peptide” value is on record as “somewhat higher efficacy”. In addition, the “decrease in germinating spores” value in assay [1] was “concentration-dependent decrease in germinating spores”. Moreover, the “germinated spores in comparison with the controls” value in assay [2] is reported as “significantly fewer germinated spores”. The “structural destruction of the spores” value in assay [3] is given as “destroyed structurally; also recorded: destroys parts of the spore structure”. Moreover, the “penetration into the spores” value in assay [3] (gold-labeled HBD3 peptides) is “able to penetrate into the spores; also recorded: penetrates into the exosporium”. Moreover, the “inhibitory effect on spore germination despite wash-out” value in assay [4] is given as “maintained”.
On to cathelicidin LL-37 [LL37], for which the results for the “difference between the effect of LL37 and HBD3” value in assay [1] (at larger concentrations (10 μg/mL)) and in assay [1] (at low concentrations) were “hardly noticeable” and “distinct difference”, respectively. Also, the “decrease in germinating spores” value in assay [1] is “concentration-dependent decrease in germinating spores”. In addition, the “germinated spores in comparison with the controls” value in assay [2] was “significantly fewer germinated spores”. Further, in assay [4], the “inhibitory effect on spore germination despite wash-out” value is given as “maintained”.
